The source of these data is patent US5910499A, “Antiallergic agent having an anti-oxidant action” (LTT Institute Co., Ltd., priority 1997, dated 1999).

The subject of one experiment is rat liver microsome. Put plainly: ADP/Fe^3+ induced lipid peroxidation reaction using rat liver microsome (anti-oxidant action). It counts as biochemical. The conditions noted are these: for inhibition action on lipid peroxidation compared with BHT: versus BHT, positive control (FIG. 1). As to the method: Test Example 1 [Anti-oxidant-action (lipid peroxide production inhibiting action)]
Compounds II-VII represented by the following formulae [drawing 3] have shown concentration dependent inhibition action on ADP/Fe^3+ induced lipid peroxidation reaction using rat liver microsome.
Test method (ADP/Fe^3+ induced lipid peroxidation reaction)
The method of Kiso et al. was employed. That means, 100 μl of a rat liver microsome suspension (20 mg of protein/ml), 100 μl of a 2 mM NADPH, 100 μl of a 10 mM ADP, and 100 μl of a specimen solution whose concentration was controlled with a 10% N,N-dimethylformamide (DMF) aqueous solution were added to 500 μl of a trihydroxymethylaminomethane (Tris)-HCl buffer solution (167 mM KCl, 74.4 mM Tris, pH 7.4) and heated at 37° C. for 5 minutes. Then 100 μl of 100 μM FeCl3 was added thereto and heated at 37° C. for 20 minutes
To a control was added 100 μl of a 10% DMF aqueous solution instead of the specimen solution. To a blank, 100 μl of a 10% DMF aqueous solution was added instead of the specimen solution, and 300 μl of water was added instead of 100 μl of the NADPH, 100 μl of the FeCl3, and 100 μl of the ADP. The reaction was stopped by cooling with ice, and the amount of the lipid peroxide was calculated as an amount of malondialdehyde according to the method of Ohkawa et al.
That means, 200 μl of a 8.1% sodium dodecyl sulfate (SDS) aqueous solution, 1.5 ml of an acetic acid buffer solution (20% AcOH containing 0.27M HCl was controlled with 10M NaOH to have a pH of 3.5), and 1.5 ml of a 0.8% 2-thiobarbituric acid aqueous solution were added to 1 ml of the reaction mixture and heated in a boiling water bath for 20 minutes Following heating, the reaction was stopped with cooling with ice and 4 ml of n-BuOH-pyridine mixed solution (15:1) was added thereto and mixed vigorously. Then the mixture was subjected to centrifugation at 800×g for 10 minutes and the absorbancy of the supernatant liquid was measured at 532 nm.
A general note: Microsomes from liver hold many membrane-bound enzymes, among them those of drug oxidation.

For experiment [1], the system named is rat cutaneous anaphylactic reaction (PCA reaction). Put plainly: Antiallergic action in an orally administered rat, 48 hours homologous PCA reaction. The following applies: Wistar male rat, oral, 2 hours before antigen; versus tranilast (FIG. 2). It counts as in vivo. On the procedure: Test Example 4--Antiallergic action in an orally administered rat (PCA method)
The antiallergic actions of Compound II-Compound VII were evaluated using rat cutaneous anaphylactic reaction (PCA reaction) employing tranilast, which is an oral antiallergic agent, as a positive control compound.
Test method (Antiallergic action by PCA reaction)
The test was carried out according to the method of Koda et al, {Int. Arch. Allergy Appl. Immunol. 87, 254(1988)}. The dorsum of a Wistar-strain male rat having a body weight of about 200 g was shaved and 0.1 ml of an antiserum showing 48 hours homologous PCA strength of 1:128-1:256 diluted with physiological saline was injected into the dorsum intracutaneously. […] After 30 minutes, the rat was brought to death by exsanguination and the pigment freckle generated on the back skin was cut out and the amount of the transuded pigment was determined. That means, the cut out skin was put in a test tube, 1 ml of 1N KOH was added and allowed to stand overnight at 37° C. to elute the pigment, and 9 ml of a mixture comprising acetone and 0.6N phosphoric acid (mixed at 13:5) was added thereto and shaken, and the insoluble substances were removed by filtration and the absorbency of the filtrate was measured at 620 nm and the amount of the pigment was determined. […]

Another experiment deals with T1, 5-lipoxygenase (Rattus norvegicus, UniProt P12527).
T1 construct: subjected to supersonic treatment and the cells were disrupted; endogenous in cells; host or cells: RBL-1 cells (homogenate)
T1 sequence (P12527 1-673): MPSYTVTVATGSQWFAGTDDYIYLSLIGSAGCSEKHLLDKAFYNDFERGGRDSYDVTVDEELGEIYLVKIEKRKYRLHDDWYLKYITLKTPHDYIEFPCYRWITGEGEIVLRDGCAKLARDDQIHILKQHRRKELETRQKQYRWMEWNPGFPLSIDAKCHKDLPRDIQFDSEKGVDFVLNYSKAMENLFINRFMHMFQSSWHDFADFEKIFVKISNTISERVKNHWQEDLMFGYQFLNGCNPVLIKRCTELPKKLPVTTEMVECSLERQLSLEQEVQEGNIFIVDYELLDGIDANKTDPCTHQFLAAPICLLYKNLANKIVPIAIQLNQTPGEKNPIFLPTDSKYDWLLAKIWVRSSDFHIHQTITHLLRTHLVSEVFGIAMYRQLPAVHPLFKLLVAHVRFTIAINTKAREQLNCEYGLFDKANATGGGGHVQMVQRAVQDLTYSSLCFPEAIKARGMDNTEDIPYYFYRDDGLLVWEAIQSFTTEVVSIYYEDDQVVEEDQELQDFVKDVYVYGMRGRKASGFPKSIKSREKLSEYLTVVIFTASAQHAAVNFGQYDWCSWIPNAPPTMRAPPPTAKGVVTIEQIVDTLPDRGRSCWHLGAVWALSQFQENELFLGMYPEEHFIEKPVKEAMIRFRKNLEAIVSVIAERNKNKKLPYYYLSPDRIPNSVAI
As to the kind of experiment: 5-lipoxygenase inhibiting action (leucotriene production inhibiting action), RBL-1 cell homogenate. It counts as biochemical. The following applies: arachidonic acid, 37° C., 5-HETE by HPLC.

The target in another experiment is T2, guinea pig bowel (Cavia porcellus, UniProt P31389).
T2 construct: the ileum was excised to a length of about 2 cm; from tissue; host or cells: guinea pig ileum
T2 sequence (P31389 whole entry): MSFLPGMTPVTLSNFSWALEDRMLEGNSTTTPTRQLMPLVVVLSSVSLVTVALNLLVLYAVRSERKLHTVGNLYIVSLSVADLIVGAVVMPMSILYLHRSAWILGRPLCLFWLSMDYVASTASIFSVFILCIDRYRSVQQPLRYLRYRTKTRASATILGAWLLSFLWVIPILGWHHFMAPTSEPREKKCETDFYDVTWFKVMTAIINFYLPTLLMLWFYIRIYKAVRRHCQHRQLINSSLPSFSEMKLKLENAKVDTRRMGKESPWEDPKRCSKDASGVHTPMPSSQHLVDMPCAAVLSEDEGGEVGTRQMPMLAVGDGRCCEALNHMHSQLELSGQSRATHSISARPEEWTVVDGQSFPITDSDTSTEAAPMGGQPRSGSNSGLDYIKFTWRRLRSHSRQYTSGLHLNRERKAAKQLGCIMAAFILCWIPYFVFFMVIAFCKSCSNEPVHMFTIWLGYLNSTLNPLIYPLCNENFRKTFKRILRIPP
As to the kind of experiment: Antihistaminic action with guinea pig bowel by Magnus' method. The conditions noted are these: guinea pig ileum, histamine dose reaction curve, 37° C.; read-out: pA2 (index of the antihistaminic action) (converted). On the procedure:
Test Example 3--Antihistaminic action
The antihistaminic action of the Compound V was tested with a guinea pig bowel by Magnus' method using diphenhydramine hydrochloride as a positive control.
A guinea pig which had been fasted overnight was struck to death and the ileum was excised to a length of about 2 cm and one end was suspended in an isotonic transducer and the other end was secured onto a fixed rod. The temperature of the temperature controlled bath was kept at 37° C. and the ileum was allowed to stand for about 30 minutes while a mixed gas comprising 95% of O2 and 5% of CO2 was introduced into 10 ml of Tyrode solution, and histamine of different concentrations was injected for training, then a dose reaction curve was obtained by administering histamine accumulatively in order of increasing concentration. Then after washing, a dose reaction curve in relation to the histamine was similarly obtained under administration of the specimen and pA2 was calculated.

Protocol for 5-lipoxygenase: Test method (5-lipoxygenase inhibition action)
That means, a RBL-1 cell suspension which was adjusted with a 50 mM phosphate buffer such that the number of cells became 1×10^7 cells/ml, was subjected to supersonic treatment and the cells were disrupted To 500 μl of the cell homogenate solution was added 10 μl of a specimen solution whose concentration was adjusted to different concentrations using a 1% DMSO, 10 μl of 100 mM CaCl2 and 10 μl of a 10 mg/ml arachidonic acid solution in MeOH and heated to 37° C. for 3 minutes. To a control was added 10 μl of a 1% DMSO instead of the specimen. To a blank, 10 μl of a 1% DMSO was added instead of the specimen, and 500 μl of a 50 mM phosphate buffer was added instead of RBL-1 cell suspension. Then 500 μl of MeOH was added thereto and the mixture was cooled with ice to stop the reaction, followed by mixing and centrifugation at 2000×g for 15 minutes Then the amount of 5-HETE in 10 μl of the supernatant liquid was measured using HPLC under the following conditions.
mobile phase; acetonitrile: 0.1% acetic acid=85:15
detection wave length; 235 nm
The inhibition ratio to 5-lipoxygenase activity was calculated according to the following formula.

Regarding `Cc1cc(OCCCN2CCN(C(c3ccccc3)c3ccccc3)CC2)c(C)c(C)c1O` [Compound III], the “inhibition action on lipid peroxidation compared with BHT” value (“inhibition action … compared with BHT” for short) in the experiment on rat liver microsome is recorded as “higher inhibition actions than BHT”.

For `Cc1cc(OCCN2CCN(C(c3ccccc3)c3ccccc3)CC2)c(C)c(C)c1O` [Compound II], the “inhibition action … compared with BHT” value in the experiment with rat liver microsome is on record as “higher inhibition actions than BHT”.

As for `Cc1cc(OCCCCN2CCN(C(c3ccccc3)c3ccccc3)CC2)c(C)c(C)c1O` [Compound IV], the “inhibition action … compared with BHT” value in the experiment on rat liver microsome is listed as “higher inhibition actions than BHT”. The “antiallergic activity compared with the positive control compound (tranilast)” value in experiment [1] is reported as “higher activity than that of the positive control compound”.

The term IC50 denotes the concentration needed to halve the response being measured. Take `Cc1cc(OCCCCCCN2CCN(C(c3ccccc3)c3ccccc3)CC2)c(C)c(C)c1O` [Compound V]: in the experiment with rat liver microsome (result in words), the “anti-oxidant action, ranking among the compounds of Test Example 1” value is “highest anti-oxidant action”. The “inhibition action … compared with BHT” value in the experiment on rat liver microsome is recorded as “higher inhibition actions than BHT”. On 5-lipoxygenase, this compound registered an IC50 of 6.2 µM. On guinea pig bowel, the Kb is 0.126 µM. Further, in experiment [1], the “antiallergic activity compared with the positive control compound (tranilast)” value was “higher activity than that of the positive control compound”.
